Entries after “also recorded” stand apart in the source; their conditions may differ.
Columns and labels:
Type in all cases: in vivo
[1] = target: T1, CGRP receptor (Mus musculus, UniProt Q9R1W5+Q9WTJ5); assay: Lung wet-to-dry ratio (pulmonary edema) after intranasal BIBN-4096 in NEHI mouse model; conditions: Nkx2-1^L/L mutants; intranasal 10 ul of 0.3 mg/ml at P10, P12, P14, P16, P18; analyzed at P22; vs vehicle DMSO
T1 construct: from tissue; host or cells: Live mouse pups on a B6 background (Nkx2-1 R191L NEHI model and control genotypes); lung, intranasal dosing
Description: Each lung was removed from sacrificed mouse right after euthanasia. Excessive blood was removed by kimwipe and wet weight mw was measured right after dissection. The lung was then placed on the foil at 70° C. for 24 hours. Dry weight […] was then measured by reweighing the dried lung. Wet-to-dry ratio was calculated as: W/D ratio=mw/md.
(§1) BIBN-4096 (Fisher Scientific #45-611-0) was dissolved in 100% DMSO (Sigma-Aldrich D2650) and further diluted to working solution with saline before use. 10 ul of 0.3 mg/ml BIBN-4096 was intranasally administrated to pups at P10, P12, P14, P16 and P18.

[2] = target: T1, CGRP receptor; assay: Body size / weight gain after intranasal BIBN-4096 in NEHI mouse model; conditions: analyzed at P22
Description: as §1

[3] = target: T1, CGRP receptor; assay: Oxygen saturation (SpO2) by pulse-ox after intranasal BIBN-4096 in NEHI mouse model; conditions: Nkx2-1^L/L mutants; intranasal 10 ul of 0.3 mg/ml at P10-P18; analyzed at P22; vs vehicle DMSO
Description: Pups were shaved and […] by isoflurane while pulse-ox (MouseOxPlus, Starr Life Sciences) was performing. The SpO2 reads were recorded after 5 minutes of stable measurement.
as §1

T1 sequence (Q9R1W5 23-463): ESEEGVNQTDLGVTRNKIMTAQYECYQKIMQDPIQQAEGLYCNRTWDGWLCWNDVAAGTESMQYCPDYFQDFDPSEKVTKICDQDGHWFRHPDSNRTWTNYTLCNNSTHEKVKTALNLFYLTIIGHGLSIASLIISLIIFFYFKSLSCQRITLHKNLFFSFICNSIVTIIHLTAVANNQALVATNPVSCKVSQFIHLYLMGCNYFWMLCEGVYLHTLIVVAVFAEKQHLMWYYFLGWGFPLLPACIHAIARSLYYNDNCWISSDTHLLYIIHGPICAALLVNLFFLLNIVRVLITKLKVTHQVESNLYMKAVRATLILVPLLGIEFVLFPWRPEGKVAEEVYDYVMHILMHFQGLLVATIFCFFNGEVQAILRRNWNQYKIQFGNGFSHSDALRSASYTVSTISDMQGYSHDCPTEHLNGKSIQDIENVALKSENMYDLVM
T1 sequence (Q9WTJ5 27-148): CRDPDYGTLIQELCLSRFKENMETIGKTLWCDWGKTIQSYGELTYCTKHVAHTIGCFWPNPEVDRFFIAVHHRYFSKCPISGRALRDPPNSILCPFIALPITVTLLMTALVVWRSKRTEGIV

`NCCCC[C@H](NC(=O)[C@@H](Cc1cc(Br)c(O)c(Br)c1)NC(=O)N1CCC(N2Cc3ccccc3NC2=O)CC1)C(=O)N1CCN(c2ccncc2)CC1` [BIBN-4096, N-((1R)-2-(((1S)-5-amino-1-((4-(pyridin-4-yl)piperazin-1-yl)carbonyl)pentyl)amino)-1-(3,5-dibromo-4-hydroxybenzyl)-2-oxoethyl)-4-(2-oxo-1,4-dihydroquinazolin-3 (2H)-yl) piperidine-1-carboxamide] was tested, and the “Lung wet-to-dry ratio (pulmonary edema)” value [1] was “clear reversal; also recorded: attenuation of fluid in lung”, the “Body size / weight gain” value ([2]; Nkx2-1^L/L mutants, intranasal 10 ul of 0.3 mg/ml at P10-P18, vs vehicle DMSO) was “clear reversal; also recorded: improved size” and the “Effects of treatment in control genotype groups” value ([2]; control genotype groups, intranasal P10-P18, vs vehicle DMSO (FIG. 9B)) was “did not lead to detectable effects”. The “Oxygen saturation measured by pulse-ox (gas-exchange)” value [3] was “clear reversal; also recorded: improved gas-exchange efficiency”.

From patent US12521389B2, “Therapeutic approach to lung disease” (The Regents of the University of California, priority 2019, dated 2026)
